Our source for the IC50 values is US12582641B2, “Sulfur-containing compound based on glutarimide skeleton and application thereof” (SHANGHAITECH UNIVERSITY, priority 2019, dated 2026).

The test system of the test is MM.1S cells. Briefly: Proliferation inhibition (IC50) in MM.1S cells, cell viability assay. The settings on record: Homo sapiens, MM1.S, 72 h, read-out: IC50 (nM), proliferation inhibitory activity of MM.1S cells (half inhibitory concentration).

Experimental: MM.1S (B lymphoblast) was purchased from ATCC. Complete medium was RPMI1640 supplemented with 10% FBS and 1% Penicillin-Streptomycin. The cells used were identified as correct cells by STR cells, and were negative for mycoplasma through routine inspections.
IC50 values of the compounds of the present disclosure were measured using Cell Titer Blue, Cell Titer GLO, or WST reagent from Promega Company. Assay details are as follows: Cells were seeded in 100 μL RPMI1640 complete medium containing serum at a density of 15,000 cells/well. After 24 h, the inoculated cells were treated with diluted commercial inhibitor and the compounds of the present disclosure to be tested after serial dilution. After the cells were treated with the compounds of the present disclosure to be tested for 72 h, cell viability was determined after adding the cell viability detection kit listed above according to the reagent operating instructions. The negative control was DMSO, and the positive control was a commercial inhibitor, both of which were used to treat the cells through the same method as that of the compounds of the present disclosure. The growth inhibition of the compounds of the present disclosure on cells was plotted by Prism Graphpad software, and the IC50 values of the compounds of the present disclosure were calculated therefrom.
We tested the activities of the compounds of the present invention in MM.1S cell (which overexpressed IKZF1/3 and is highly sensitive to immunomodulatory drugs) through a dose-dependent manner. The cells were treated with the compounds of the present invention at 10 different successively decreasing concentrations (starting at the highest concentration of 10 μM; 5-fold serial dilutions) for 72 h, and then the cell viability determination was performed in accordance with CCK-8 reagent operating instructions. The experiment was repeated more than three times.

`O=C1CCC(N2Cc3c(SCCCCCCCCO)cccc3C2=O)C(=O)N1` (stereo not drawn) [SIAIS264006, 3-(4-((8-hydroxyoctyl)thio)-1-oxoisoindolin-2-yl)piperidine-2,6-dione]: the IC50 is 0.83 nM.

With `O=C1CCC(N2Cc3c(SCCCCCCCCNc4ncnc5ccccc45)cccc3C2=O)C(=O)N1` (stereo not drawn) [SIAIS264011, 3-(1-oxo-4-((8-(quinazolin-4-ylamino)octyl)thio)isoindolin-2-yl)piperidine-2,6-dione], the IC50 was 0.34 nM. Next, `O=C1CCC(N2Cc3c(SCCCCCCCCN4CCCCC4=O)cccc3C2=O)C(=O)N1` (stereo not drawn) [SIAIS264019, 3-(1-oxo-4-((8-(2-oxopiperidin-1-yl)octyl)thio)isoindolin-2-yl)piperidine-2,6-dione]: 0.13 nM; `O=C1CCC(N2Cc3c(SCCCCCCCN4CCCCC4=O)cccc3C2=O)C(=O)N1` (stereo not drawn) [SIAIS264042, 3-(1-oxo-4-((7-(2-oxopiperidin-1-yl)heptyl)thio)isoindolin-2-yl)piperidine-2,6-dione]: 0.051 nM; `Cc1ccc(NC(=O)NCCSc2cccc3c2CN(C2CCC(=O)NC2=O)C3=O)cc1Cl` (stereo not drawn) [SIAIS269012, 1-(3-chloro-4-methylphenyl)-3-(2-((2-(2,6-dioxopiperidin-3-yl)-1-oxoisoindolin-4-yl)thio)ethyl)urea]: 3.79 nM. Next, `Cc1ccc(NC(=O)NCCCCCCCSc2cccc3c2CN(C2CCC(=O)NC2=O)C3=O)cc1Cl` (stereo not drawn) [SIAIS269068, 1-(3-chloro-4-methylphenyl)-3-(7-((2-(2,6-dioxopiperidin-3-yl)-1-oxoisoindolin-4-yl)thio)heptyl)urea]: 0.901 nM.

Regarding `Cc1ccc(NC(=O)NCCCCCCCCSc2cccc3c2CN(C2CCC(=O)NC2=O)C3=O)cc1Cl` (stereo not drawn) [SIAIS269072, 1-(3-chloro-4-methylphenyl)-3-(8-((2-(2,6-dioxopiperidin-3-yl)-1-oxoisoindolin-4-yl)thio)octyl)urea], the IC50 came out at 0.468 nM.

On to `Cc1ccc(NC(=O)NCCCCSc2cccc3c2CN(C2CCC(=O)NC2=O)C3=O)cc1Cl` (stereo not drawn) [SIAIS269095, 1-(3-chloro-4-methylphenyl)-3-(4-((2-(2,6-dioxopiperidin-3-yl)-1-oxoisoindolin-4-yl)thio)butyl)urea], for which the IC50 was found to be 0.334 nM. In the case of `O=C1CCC(N2Cc3c(SCCCCCCCOC4C5CC6CC(C5)CC4C6)cccc3C2=O)C(=O)N1` (stereo not drawn) [SIAIS269159, 3-(4-((7-(adamantan-2-yloxy)heptyl)thio)-1-oxoisoindolin-2-yl)piperidine-2,6-dione], the IC50 is 0.068 nM. Under `O=C1CCC(N2Cc3cc(SCCCCCCCNC45CC6CC(CC(C6)C4)C5)ccc3C2=O)C(=O)N1` (stereo not drawn) [SIAIS271167, 3-(5-((7-((adamantan-1-yl)amino)heptyl)thio)-1-oxoisoindolin-2-yl)piperidine-2,6-dione] stands 164 nM.

Take `CN(CCCCNC(=O)CSc1cccc2c1CN(C1CCC(=O)NC1=O)C2=O)C12CC3CC(CC(C3)C1)C2` (stereo not drawn) [SIAIS287105, N-(4-(adamantan-1-yl(methyl)amino)butyl)-2-((2-(2,6-dioxopiperidin-3-yl)-1-oxoisoindolin-4-yl)thio)acetamide]: the IC50 was found to be 5.01 nM. Next, `O=C1CCC(N2Cc3c(SCc4ccc(CN5CCCCC5)o4)cccc3C2=O)C(=O)N1` (stereo not drawn) [SIAIS313123, 3-(1-oxo-4-(((5-(piperidin-1-ylmethyl)furan-2-yl)methyl)thio)isoindolin-2-yl)piperidine-2,6-dione]: 2.29 ± 0.95 nM; `O=C1CCC(N2Cc3c(SCc4ccc(CN5CCOCC5)o4)cccc3C2=O)C(=O)N1` (stereo not drawn) [SIAIS313126, 3-(4-(((5-(morpholinomethyl)furan-2-yl)methyl)thio)-1-oxoisoindolin-2-yl)piperidine-2,6-dione]: 2.97 ± 0.79 nM; `C[C@H](NCc1ccc(CSc2cccc3c2CN(C2CCC(=O)NC2=O)C3=O)o1)C1CC1` (stereo partly drawn) [SIAIS313129, 3-(4-(((5-((((S)-1-cyclopropylethyl)amino)methyl)furan-2-yl)methyl)thio)-1-oxoisoindolin-2-yl)piperidine-2,6-dione]: 0.97 ± 0.55 nM. Next, `O=C1CCC(N2Cc3c(SCc4ccc(CN5CCCCCC5)o4)cccc3C2=O)C(=O)N1` (stereo not drawn) [SIAIS313135, 3-(4-(((5-(azepan-1-ylmethyl)furan-2-yl)methyl)thio)-1-oxoisoindolin-2-yl)piperidine-2,6-dione]: 2.62 ± 0.94 nM. On to `O=C1CCC(N2Cc3c(SCc4ccc(CNC5CCCC5)o4)cccc3C2=O)C(=O)N1` (stereo not drawn) [SIAIS313148, 3-(4-(((5-((cyclopentylamino)methyl)furan-2-yl)methyl)thio)-1-oxoisoindolin-2-yl)piperidine-2,6-dione], for which the IC50 came to 0.95 ± 0.45 nM.

On to `O=C1CCC(N2Cc3c(SCc4ccc(CNCC5CCCCO5)o4)cccc3C2=O)C(=O)N1` (stereo not drawn) [SIAIS313149, 3-(1-oxo-4-(((5-((((tetrahydro-2H-pyran-2-yl)methyl)amino)methyl)furan-2-yl)methyl)thio)isoindolin-2-yl)piperidine-2,6-dione], for which the IC50 worked out at 1.3 ± 0.96 nM. For the molecule `O=C1CCC(N2Cc3c(SCc4ccc(CNC(C5CC5)C5CC5)o4)cccc3C2=O)C(=O)N1` (stereo not drawn) [SIAIS313150, 3-(4-(((5-(((dicyclopropylmethyl)amino)methyl)furan-2-yl)methyl)thio)-1-oxoisoindolin-2-yl)piperidine-2,6-dione], the IC50 came to 0.7 ± 0.27 nM. Under `O=C1CCC(N2Cc3c(SCc4csc(CN5CCOCC5)n4)cccc3C2=O)C(=O)N1` (stereo not drawn) [SIAIS313163, 3-(4-(((2-(morpholinomethyl)thiazol-4-yl)methyl)thio)-1-oxoisoindolin-2-yl)piperidine-2,6-dione] stands 9.38 ± 1.37 nM; under `O=C1CCC(N2Cc3c(SCc4csc(CN5CCCCC5)n4)cccc3C2=O)C(=O)N1` (stereo not drawn) [SIAIS313164, 3-(1-oxo-4-(((2-(piperidin-1-ylmethyl)thiazol-4-yl)methyl)thio)isoindolin-2-yl)piperidine-2,6-dione], 2.78 ± 0.73 nM.

As for `O=C1CCC(N2Cc3c(SCc4csc(CN5CCCCCC5)n4)cccc3C2=O)C(=O)N1` (stereo not drawn) [SIAIS313165, 3-(4-(((2-(azepan-1-ylmethyl)thiazol-4-yl)methyl)thio)-1-oxoisoindolin-2-yl)piperidine-2,6-dione], the IC50 was found to be 2.77 ± 1.12 nM.

For `O=C1CCC(N2Cc3c(SCc4csc(CNC5CCCC5)n4)cccc3C2=O)C(=O)N1` (stereo not drawn) [SIAIS313166, 3-(4-(((2-((cyclopentylamino)methyl)thiazol-4-yl)methyl)thio)-1-oxoisoindolin-2-yl)piperidine-2,6-dione], the IC50 was found to be 7.55 ± 1.89 nM. Under `O=C1CCC(N2Cc3c(SCc4nc(CN5CCOCC5)cs4)cccc3C2=O)C(=O)N1` (stereo not drawn) [SIAIS313169, 3-(4-(((4-(morpholinomethyl)thiazol-2-yl)methyl)thio)-1-oxoisoindolin-2-yl)piperidine-2,6-dione] stands 5.03 ± 2.13 nM.

Take `O=C1CCC(N2Cc3c(SCc4nc(CN5CCCCC5)cs4)cccc3C2=O)C(=O)N1` (stereo not drawn) [SIAIS313170, 3-(1-oxo-4-(((4-(piperidin-1-ylmethyl)thiazol-2-yl)methyl)thio)isoindolin-2-yl)piperidine-2,6-dione]: the IC50 amounted to 2.56 ± 0.56 nM. Next, `O=C1CCC(N2Cc3c(SCc4nc(CN5CCCCCC5)cs4)cccc3C2=O)C(=O)N1` (stereo not drawn) [SIAIS313171, 3-(4-(((4-(azepan-1-ylmethyl)thiazol-2-yl)methyl)thio)-1-oxoisoindolin-2-yl)piperidine-2,6-dione]: 1.34 ± 0.32 nM; `CC1CC(C)CN(Cc2csc(CSc3cccc4c3CN(C3CCC(=O)NC3=O)C4=O)n2)C1` (stereo not drawn) [SIAIS313186, 3-(4-(((4-((3,5-dimethylpiperidin-1-yl)methyl)thiazol-2-yl)methyl)thio)-1-oxoisoindolin-2-yl)piperidine-2,6-dione]: 1.63 ± 0.61 nM; `O=C1CCC(N2Cc3c(SCc4nc(CN5CC6CCCCC6C5)cs4)cccc3C2=O)C(=O)N1` (stereo not drawn) [SIAIS313188, 3-(4-(((4-((hexahydro-1H-isoindol-2(3H)-yl)methyl)thiazol-2-yl)methyl)thio)-1-oxoisoindolin-2-yl)piperidine-2,6-dione]: 1.43 ± 0.3 nM. Under `O=C1CCC(N2Cc3c(SCc4nc(CN5CCSCC5)cs4)cccc3C2=O)C(=O)N1` (stereo not drawn) [SIAIS355001, 3-(1-oxo-4-(((4-(thiomorpholinomethyl)thiazol-2-yl)methyl)thio)isoindolin-2-yl)piperidine-2,6-dione] stands 2.51 ± 0.54 nM; under `CCN(CC)Cc1csc(CSc2cccc3c2CN(C2CCC(=O)NC2=O)C3=O)n1` (stereo not drawn) [SIAIS355002, 3-(4-(((4-((diethylamino)methyl)thiazol-2-yl)methyl)thio)-1-oxoisoindolin-2-yl)piperidine-2,6-dione], 1.07 ± 0.39 nM; under `O=C1CCC(N2Cc3c(SCc4nc(CNC5CCCCC5)cs4)cccc3C2=O)C(=O)N1` (stereo not drawn) [SIAIS355003, 3-(4-(((4-((cyclohexylamino)methyl)thiazol-2-yl)methyl)thio)-1-oxoisoindolin-2-yl)piperidine-2,6-dione], 0.75 ± 0.1 nM.

Regarding `O=C1CCC(N2Cc3c(SCc4nc(CNCC5CCCCC5)cs4)cccc3C2=O)C(=O)N1` (stereo not drawn) [SIAIS355004, 3-(4-(((4-(((cyclohexylmethyl)amino)methyl)thiazol-2-yl)methyl)thio)-1-oxoisoindolin-2-yl)piperidine-2,6-dione], the IC50 stood at 0.61 ± 0.42 nM. For the molecule `CSc1cccc2c1CN(C1CCC(=O)NC1=O)C2=O` (stereo not drawn) [SIAIS1210071, 3-(4-(methylthio)-1-oxoisoindolin-2-yl)piperidine-2,6-dione], the IC50 came to 3.37 ± 0.48 nM. For `CCCCCSc1cccc2c1CN(C1CCC(=O)NC1=O)C2=O` (stereo not drawn) [SIAIS1213195, 3-(1-oxo-4-(pentylthio)isoindolin-2-yl)piperidine-2,6-dione], the IC50 came to 1.48 ± 0.06 nM. `CCCCCCCCSc1cccc2c1CN(C1CCC(=O)NC1=O)C2=O` (stereo not drawn) [SIAIS1216025, 3-(4-(octylthio)-1-oxoisoindolin-2-yl)piperidine-2,6-dione]: the IC50 was found to be 2.1 ± 0.67 nM.

As for `O=C1CCC(N2Cc3c(SCCCCCN4CCOCC4)cccc3C2=O)C(=O)N1` (stereo not drawn) [SIAIS1216061, 3-(4-((5-morpholinopentyl)thio)-1-oxoisoindolin-2-yl)piperidine-2,6-dione], the IC50 was 2.52 ± 0.22 nM. Under `O=C1CCC(N2Cc3c(SCCCCCN4CCNCC4)cccc3C2=O)C(=O)N1` (stereo not drawn) [SIAIS1216063, 3-(1-oxo-4-((5-(piperazin-1-yl)pentyl)thio)isoindolin-2-yl)piperidine-2,6-dione] stands 8.58 ± 2.58 nM.
